Data reported in patent US12077503B2, “Substituted cyclic amides and their use as herbicides” (FMC CORPORATION, priority 2015, dated 2024).

Key:
Assay type in all cases: in vivo
[1] = tested on: giant foxtail (Setaria faberii); test: Test A preemergence; details: Setaria faberi, pre-emergence, 240 h; for pest or weed control at 125 g/ha: 125 g ai/ha, Preemergence, visual injury rating after approximately 10 d, read-out: Foxtail, Giant plant response rating (0 to 100 scale, 0 is no effect, 100 is complete control); for pest or weed control at 500 g/ha: 500 g ai/ha, preemergence, visual injury rating about 10 d after treatment, 0 to 100 scale (0 no effect, 100 complete control), read-out: Foxtail, Giant plant response rating
How it was run: (§1)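 Preemergence directed soil spray on seeded pots, or postemergence application to plants 2–10 cm, one- to two-leaf. Solvent mixture non-phytotoxic, with surfactant. Scored ~10 d later, visually, 0–100 vs untreated.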

[2] = tested on: Galium (catchweed bedstraw, Galium aparine); test: Test A postemergence; details: Galium, post-emergence, 240 h, postemergence, approx. 10 d; for pest or weed control at 125 g/ha: 125 g ai/ha, visual injury on 0 to 100 scale (0 no effect, 100 complete control), read-out: Galium plant response rating; for pest or weed control at 500 g/ha: 500 g ai/ha, visual injury, 0 to 100 scale (0 no effect, 100 complete control), read-out: Plant response rating, Galium
How it was run: as §1

Kochia (Kochia scoparia) = test: Test A postemergence; details: Bassia scoparia, post-emergence, 240 h, postemergence, approx. 10 d; for pest or weed control at 125 g/ha: 125 g ai/ha, visual injury on 0 to 100 scale (0 no effect, 100 complete control), read-out: Kochia plant response rating; for pest or weed control at 500 g/ha: 500 g ai/ha, visual injury, 0 to 100 scale (0 no effect, 100 complete control), read-out: Plant response rating, Kochia
How it was run: as §1

[3] = tested on: barnyardgrass (Echinochloa crus-galli); test: Test A postemergence; details: Echinochloa crus-galli, post-emergence, 240 h, read-out: Plant response rating, Barnyardgrass; for pest or weed control at 125 g/ha: 125 g ai/ha, Postemergence, visual injury after approximately 10 d, 0 to 100 scale where 0 is no effect and 100 is complete control; for pest or weed control at 500 g/ha: 500 g ai/ha, postemergence, visual injury, 0 to 100 scale (0 no effect, 100 complete control), approx. 10 d
How it was run: as §1

[4] = tested on: blackgrass (Alopecurus myosuroides); test: Test A postemergence; details: Alopecurus myosuroides, post-emergence, 240 h, read-out: Plant response rating, Blackgrass; for pest or weed control at 125 g/ha: 125 g ai/ha, Postemergence, visual injury after approximately 10 d, 0 to 100 scale where 0 is no effect and 100 is complete control; for pest or weed control at 500 g/ha: 500 g ai/ha, postemergence, visual injury, 0 to 100 scale (0 no effect, 100 complete control), approx. 10 d
How it was run: as §1

corn (Zea mays) = test: Test A postemergence; details: Zea mays, post-emergence, 240 h; for Corn plant response rating (crop injury, 0 = no effect, 100 = complete kill) at 125 g/ha: 125 g ai/ha, Postemergence, visual injury after approximately 10 d, 0 to 100 scale where 0 is no effect and 100 is complete control; for Corn plant response rating (crop injury, 0 = no effect, 100 = complete kill) at 500 g/ha: 500 g ai/ha, postemergence, visual injury, 0 to 100 scale (0 no effect, 100 complete control), approx. 10 d
How it was run: as §1

[5] = tested on: giant foxtail (Setaria faberii); test: Test A postemergence; details: Setaria faberi, post-emergence, 240 h, postemergence, approx. 10 d; for pest or weed control at 125 g/ha: 125 g ai/ha, visual injury on 0 to 100 scale (0 no effect, 100 complete control), read-out: Foxtail, Giant plant response rating; for pest or weed control at 500 g/ha: 500 g ai/ha, visual injury, 0 to 100 scale (0 no effect, 100 complete control), read-out: Plant response rating, Foxtail, Giant
How it was run: as §1

[6] = tested on: pigweed (Amaranthus retroflexus); test: Test A postemergence; details: Amaranthus retroflexus, post-emergence, 240 h, postemergence, approx. 10 d; for pest or weed control at 125 g/ha: 125 g ai/ha, visual injury on 0 to 100 scale (0 no effect, 100 complete control), read-out: Pigweed plant response rating; for pest or weed control at 500 g/ha: 500 g ai/ha, visual injury, 0 to 100 scale (0 no effect, 100 complete control), read-out: Plant response rating, Pigweed
How it was run: as §1

[7] = tested on: ragweed (common ragweed, Ambrosia elatior); test: Test A postemergence; details: Ambrosia artemisiifolia, post-emergence, 240 h, postemergence, approx. 10 d; for pest or weed control at 125 g/ha: 125 g ai/ha, visual injury on 0 to 100 scale (0 no effect, 100 complete control), read-out: Ragweed plant response rating; for pest or weed control at 500 g/ha: 500 g ai/ha, visual injury, 0 to 100 scale (0 no effect, 100 complete control), read-out: Plant response rating, Ragweed
How it was run: as §1

[8] = tested on: ryegrass, Italian (Italian ryegrass, Lolium multiflorum); test: Test A postemergence; details: Lolium multiflorum, post-emergence, 240 h, postemergence, approx. 10 d; for pest or weed control at 125 g/ha: 125 g ai/ha, visual injury on 0 to 100 scale (0 no effect, 100 complete control), read-out: Ryegrass, Italian plant response rating; for pest or weed control at 500 g/ha: 500 g ai/ha, visual injury, 0 to 100 scale (0 no effect, 100 complete control), read-out: Plant response rating, Ryegrass, Italian
How it was run: as §1

[9] = tested on: wheat (Triticum aestivum); test: Test A postemergence; details: Triticum aestivum, post-emergence, 240 h, postemergence, approx. 10 d; for plant injury at 125 g/ha: 125 g ai/ha, visual injury on 0 to 100 scale (0 no effect, 100 complete control), read-out: Wheat plant response rating; for plant injury at 500 g/ha: 500 g ai/ha, visual injury, 0 to 100 scale (0 no effect, 100 complete control), read-out: Plant response rating, Wheat
How it was run: as §1

[10] = tested on: barnyardgrass (Echinochloa crus-galli); test: Test B flooded paddy test; details: Echinochloa crus-galli, 250 g ai/ha, Flood; 0 to 100 scale where 0 is no effect and 100 is complete control; read-out: Barnyardgrass plant response rating
How it was run: (§2)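 Flooding to 3 cm over soil accompanied treatment, which consisted of adding compound to the standing water around 2-leaf plants; depth was then maintained. Visual assessment versus controls followed at 13 to 15 d (scale 0–100, 0 meaning no effect).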

[11] = tested on: ducksalad (Heteranthera limosa); test: Test B flooded paddy test; details: Heteranthera limosa, 250 g ai/ha, Flood; 0 to 100 scale where 0 is no effect and 100 is complete control; read-out: Ducksalad plant response rating
How it was run: as §2

rice (Oryra sativa) = test: Test B flooded paddy test; details: Oryza sativa, 250 g ai/ha, Flood; 0 to 100 scale where 0 is no effect and 100 is complete control; read-out: Rice plant response rating
How it was run: as §2

[12] = tested on: sedge, umbrella (small-flower umbrella sedge, Cyperus difformis); test: Test B flooded paddy test; details: Cyperus difformis, 250 g ai/ha, Flood; 0 to 100 scale where 0 is no effect and 100 is complete control; read-out: Sedge, Umbrella plant response rating
How it was run: as §2

Structure (SMILES)	pest or weed control at 125 g/ha [1] [%]	pest or weed control at 500 g/ha [1] [%]	pest or weed control at 125 g/ha [2] [%]	pest or weed control at 500 g/ha [2] [%]	pest or weed control at 125 g/ha (Kochia (Kochia scoparia)) [%]	pest or weed control at 500 g/ha (Kochia (Kochia scoparia)) [%]	pest or weed control at 125 g/ha [3] [%]	pest or weed control at 500 g/ha [3] [%]	pest or weed control at 125 g/ha [4] [%]	pest or weed control at 500 g/ha [4] [%]	Corn plant response rating (crop injury, 0 = no effect, 100 = complete kill) at 125 g/ha (corn (Zea mays)) [%]	Corn plant response rating (crop injury, 0 = no effect, 100 = complete kill) at 500 g/ha (corn (Zea mays)) [%]	pest or weed control at 125 g/ha [5] [%]	pest or weed control at 500 g/ha [5] [%]	pest or weed control at 125 g/ha [6] [%]	pest or weed control at 500 g/ha [6] [%]	pest or weed control at 125 g/ha [7] [%]	pest or weed control at 500 g/ha [7] [%]	pest or weed control at 125 g/ha [8] [%]	pest or weed control at 500 g/ha [8] [%]	other results
CC(C)COc1cccc([C@H]2CN(C)C(=O)[C@@H]2C(=O)Nc2ccccc2F)c1 [Compound 1028]	90	90	40	50	0	0	80	90	30	40	0	30	80	80	0	0	0	0	0	40	plant injury at 125 g/ha [9]: 0%; plant injury at 500 g/ha [9]: 40%; pest or weed control at 250 g/ha [10]: 20%; pest or weed control at 250 g/ha [11]: 80%; pest or weed control at 250 g/ha (rice (Oryra sativa)): 10%; pest or weed control at 250 g/ha [12]: 0%
CC(C)COc1cccc([C@H]2CN(C)C(=O)[C@@H]2C(=O)Nc2cccc(F)c2F)c1 [Compound 1029]	90	90	20	40	0	0	80	90	30	40	50	70	80	90	0	0	0	0	0	40	plant injury at 125 g/ha [9]: 30%; plant injury at 500 g/ha [9]: 60%; pest or weed control at 250 g/ha [10]: 0%; pest or weed control at 250 g/ha [11]: 85%; pest or weed control at 250 g/ha (rice (Oryra sativa)): 0%; pest or weed control at 250 g/ha [12]: 0%
Cc1ccc([C@H]2CNC(=O)[C@@H]2C(=O)Nc2ccccc2S(C)(=O)=O)cc1C [Compound 1037]	20	80	40	60	0	20	70	90	0	20	0	30	0	30	0	0	20	30	0	50	plant injury at 125 g/ha [9]: 0%; plant injury at 500 g/ha [9]: 30%; pest or weed control at 250 g/ha [10]: 25%; pest or weed control at 250 g/ha [11]: 100%; pest or weed control at 250 g/ha (rice (Oryra sativa)): 0%; pest or weed control at 250 g/ha [12]: 0%
